In patent US20040053950A1, “Antimalarial activities and therapeutic properties of febrifugine analogues” (priority 2002, published 2004):
pIC50: −log10 of the molar value. ≈ marks a conversion by molar mass, not a printed value. Where two headings read alike, the source gives them in different places.

How the values were obtained:
[1] = test system: P. falciparum chloroquine-resistant W2-strain; experiment: In vitro drug susceptibility assay ([3H]-hypoxanthine incorporation), W2 strain; assay type: cell-based; details: Plasmodium falciparum
Experimental: (§1) Potential resistance to halofuginone derivatives of P. falciparum isolates were tested. Isolates of P. falciparum stored in liquid nitrogen are thawed and cultivated in RPMI 1640 media with 6% human erythrocytes supplemented with 10% of human serum. The parasite cultures are maintained in an atmosphere of 5% CO2, 5% O2 and 90% N2 at 37° C. for the assay. The semi-automated micro-dilution technique of Desjardins is used to assess the sensitivity of the parasites to febrifugine and halofuginone derivatives. The incorporation of [3H]-hypoxanthine into the parasites is measured as a function of compound concentration to determine EC50 values.

[2] = test system: P. falciparum chloroquine-sensitive D6-strain; experiment: In vitro drug susceptibility assay ([3H]-hypoxanthine incorporation), D6 strain; assay type: cell-based; details: Plasmodium falciparum
Experimental: as §1

[3] = test system: Macrophage cells (J774); experiment: In vitro drug toxicity assay, macrophage cells; assay type: cell-based; details: Mus musculus
[4] = test system: Neuronal cells (NG108); experiment: In vitro drug toxicity assay, neuronal cells; assay type: cell-based; details: NG-108
[5] = target: T1, PfMRK (Plasmodium falciparum, UniProt P90584); experiment: Kinase assay, recombinant plasmodial cyclin-dependent kinase; assay type: biochemical; details: for IC50: recombinant kinase, dash = no inhibition, read-out: PFMRK (IC50:μM)
T1 sequence (P90584 1-324): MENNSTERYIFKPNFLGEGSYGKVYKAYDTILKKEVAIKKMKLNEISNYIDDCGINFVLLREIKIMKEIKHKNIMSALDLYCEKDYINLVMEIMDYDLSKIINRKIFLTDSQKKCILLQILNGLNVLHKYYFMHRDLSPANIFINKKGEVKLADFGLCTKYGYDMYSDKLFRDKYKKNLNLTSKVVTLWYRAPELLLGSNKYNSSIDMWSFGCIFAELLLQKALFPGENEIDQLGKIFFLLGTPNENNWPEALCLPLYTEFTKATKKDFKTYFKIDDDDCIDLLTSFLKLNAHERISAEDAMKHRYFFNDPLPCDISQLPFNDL
Source text: Halofuginone is a known to be a specific collagen gene transcription inhibitor. However, inhibition to other target enzymes by febrifugine, halofuginone and halofuginone derivatives in malarial parasites remain unknown. Quinazoline analogues (the family to which these compounds belong) are known to target dihydrofolate reductase, mammalian EGFR kinase, the stress-activated protein kinase and cyclin dependent kinase. A series of enzymatic assays are used to detect whether the derivatives have inhibition against these enzymes. DHFR assay is conducted using a well-characterized spectrophotometric method. Kinase assays are conducted using radioisotope-labeling technique. The responses of the recombinant kinases to the derivatives are measured in a scintillation b-counter and illustrated using SDS-page gel and PhosphoImager. These tests provide information on the compounds' abilities to interfere with the functions of these enzymes and alter the parasite physiological pathways on a molecular basis.

[6] = test system: Plasmodium berghei; experiment: Modified Thompson test in P. berghei-infected mice; assay type: in vivo; details: for parasitemia of the infected mice: 10 mg/kg once/day for three days
Experimental: An active animal use protocol mouse models are used to test the above compounds to determine antimalarial activity by using modified Thompson Test. In this test, IRC mice are inoculated intraperitoneally with P. berghei-infected erythrocytes from donor mice that are anesthetized and exsanguinated via cardiac puncture to collect infected blood. The pooled blood is then diluted with normal mouse serum to a concentration of 1×10^6 P. berghei erythrocytes per inoculum (0.1 ml). The groups of testing and control mice are inoculated with the infected blood on day 0 and then treated with various dosages of halofuginone or the derivatives in aqueous-based vehicles on day 3 through the day required. The drug is administered orally (PO), subcutaneously (SC), intramuscularly (IM), and/or intraperitoneally (IP) up to three times a day, based on the requirements. Blood films and body weights are taken on the third and sixth days post-infection, then at weekly intervals through day 60. Films are Giemsa-stained, examined using light microscopy for the determination of parasitemia. All mice with negative smears at 60 days are considered cured. The data from the in vivo testing verifies the antimalarial efficacy of febrifugine, halofuginone and the halofuginone derivatives in mice and provides new properties of halofuginone and halofuginone derivatives against malarial parasites in vivo.
The modified Thompson test was conducted in eleven groups of mice with eight mice per group. The tested mice were inoculated with P. Berghei on day zero and treated with febrifugines on days three with one oral or subcutaneous treatment per day for three days. […] The parasitemia of the infected mice was reduced to less than 3% with oral administration of 10 mg/kg febrifugines one/day for three days, while mice with the subcutaneous treatment had 30% of parasitemia at the same does as shown in FIGS. 3(a) through 3(d).
Eighty-eight ICR mice were inoculated with P. berghei, and separated into nine groups. Eight of the infected groups were treated with […] different doses of halofuginone twice a day for eight days. One group was treated with physiological saline as control. […] Two mice were cured at the doses of 0.25 and 0.5 mg/kg and survived 60 days after the treatment. […] The parasites were all cleared at the does of 1 mg/kg on day six.

[7] = Toxic effects in mice (observation and necropsy analysis); assay type: in vivo; details: for diarrhea / gastrointestinal toxic effects: mice
[8] = test system: malarial parasites; experiment: In vitro antimalarial activity, parasites in culture (strain not stated); assay type: cell-based
Experimental: as §1

[9] = test system: Plasmodium lophurae; details: duck models, purified febrifugine; cited from earlier work
[10] = Table 1, W2 strain, read-out: IC50 against P. falciparum W2 strain
[11] = Table 4, W2, read-out: IC50 P. falciparum (W2)
[12] = Table 1, D6 strain, read-out: IC50 against P. falciparum D6 strain
[13] = Table 4, D6, read-out: IC50 P. falciparum (D6)

| Compound | IC50 [1, 10] | IC50 [1, 11] | IC50 [2, 12] | IC50 [2, 13] | IC50 ([3]; Table 2, J774) | IC50 ([3]; Table 4, J774) | IC50 ([4]; Table 2, NG108) | IC50 ([4]; Table 4, NG108) | other results |
| --- | --- | --- | --- | --- | --- | --- | --- | --- | --- |
| C=CCOC(=O)N1CCCC(OCC)[C@H]1CC(=O)Cn1cnc2ccccc2c1=O (stereo partly shown) [WR088442] | 0.288 µg/mL (≈ 0.696 µM) | 0.245 µg/mL (≈ 0.593 µM) | 0.203 µg/mL (≈ 0.491 µM) | 0.193 µg/mL (≈ 0.466 µM) | 9.1 µg/mL (≈ 22 µM) | 7.09 µg/mL (≈ 17.1 µM) | 21.5 µg/mL (≈ 52 µM) | 35.1 µg/mL (≈ 84.8 µM) | IC50 [5]: ~25 µM |
| (2′S,3′R)-3-[3-(3-hydroxy-2-piperidyl)acetonyl]-4(3H)quinazolinone [Febrifugine] | – | – | – | – | – | – | – | – | efficacy of oral versus subcutaneous treatment ([6]; one treatment per day for three days, mice): more efficacious; parasitemia of the infected mice ([6]; oral administration, mice): less than 3%; parasitemia of the infected mice ([6]; subcutaneous treatment, mice): 30%; toxic effects (nausea and vomiting) in mice ([7]; antimalarial dosages): do not appear to have such toxic effects; diarrhea ([7]; effective treatment doses): did not induce diarrhea; gastrointestinal toxic effects ([7]; oral treatment, toxic doses): severe gastrointestinal lesions and hemorrhage; gastrointestinal toxic effects ([7]; subcutaneous treatment, toxic doses): did not induce GI tract injury; vomiting ([7]; tested mice): No vomiting has been observed; diarrhea ([7]; toxic doses): caused diarrhea; necropsy findings ([7]; toxic doses, mouse killed by drug): pale liver and intestine lesions and hemorrhage |
| O=C(C[C@H]1CCCCN1C(=O)c1ccccc1)Cn1cnc2ccccc2c1=O [WR059424] | – | 0.284 µg/mL (≈ 0.728 µM) | – | 0.291 µg/mL (≈ 0.748 µM) | – | 3.01 µg/mL (≈ 7.73 µM) | – | 36.8 µg/mL (≈ 94.5 µM) | – |
| COC1CCCN[C@@H]1CC(=O)Cn1cnc2ccc3c(c2c1=O)OCO3 (stereo partly shown) [WR140085] | 0.0141 µg/mL (≈ 0.0391 µM) | 0.0151 µg/mL (≈ 0.0419 µM) | 0.0105 µg/mL (≈ 0.0291 µM) | 0.0129 µg/mL (≈ 0.036 µM) | 3.29 µg/mL (≈ 9.14 µM) | 0.425 µg/mL (≈ 1.18 µM) | 10.8 µg/mL (≈ 30.1 µM) | 15.5 µg/mL (≈ 43.1 µM) | – |
| COC1CCCN[C@@H]1CC(=O)Cn1cnc2cc3c(cc2c1=O)OCO3 (stereo partly shown) [WR090212] | 0.0256 µg/mL (≈ 0.0713 µM) | 0.0234 µg/mL (≈ 0.0651 µM) | 0.0181 µg/mL (≈ 0.0504 µM) | 0.0189 µg/mL (≈ 0.0527 µM) | 3.54 µg/mL (≈ 9.85 µM) | 2.97 µg/mL (≈ 8.27 µM) | 26 µg/mL (≈ 72.3 µM) | 24.8 µg/mL (≈ 69.1 µM) | – |
| O=C(CC1NCCCC1O)Cn1cnc2cc(Br)c(Cl)cc2c1=O (stereo not shown) [Halofuginone] | – | 0.00015 µg/mL (≈ 0.000362 µM) | – | 0.00012 µg/mL (≈ 0.000289 µM) | – | 0.132 µg/mL (≈ 0.319 µM) | – | 0.177 µg/mL (≈ 0.427 µM) | lethal toxicity in infected mice ([6]; dose higher than 1 mg/kg twice a day): killed the tested mice before the parasites; mouse survival time ([6]; doses of 0.125, 0.25 and 0.5 mg/kg twice a day for eight days, ICR mice): extended the mouse survival time; parasitemia of the infected mice on day six ([6]; doses of 0.25 and 0.5 mg/kg twice a day): below 0.5%; mice cured (survived 60 days after the treatment) ([6]; doses of 0.25 and 0.5 mg/kg twice a day for eight days): Two; rank of in vitro potency against malarial parasites among febrifugine derivatives [8]: the most potent analog |
| O=C(C[C@H]1NCCCC1O)Cn1cnc2c(Cl)c(Cl)c(Cl)cc2c1=O (stereo partly shown) [WR222048] | 0.00129 µg/mL (≈ 0.00319 µM) | 0.00098 µg/mL (≈ 0.00242 µM) | 0.000962 µg/mL (≈ 0.00238 µM) | 0.00082 µg/mL (≈ 0.00203 µM) | 0.11 µg/mL (≈ 0.272 µM) | 0.499 µg/mL (≈ 1.23 µM) | 1.1 µg/mL (≈ 2.71 µM) | 0.879 µg/mL (≈ 2.17 µM) | – |
| C=CCOC(=O)N1CCCC(OC)[C@H]1CC(=O)Cn1cnc2cc3c(cc2c1=O)OCO3 (stereo partly shown) [WR089904] | 0.129 µg/mL (≈ 0.292 µM) | 0.129 µg/mL (≈ 0.292 µM) | 0.0897 µg/mL (≈ 0.202 µM) | 0.0897 µg/mL (≈ 0.202 µM) | 29.2 µg/mL (≈ 65.7 µM) | 1.08 µg/mL (≈ 2.43 µM) | 63 µg/mL (≈ 142 µM) | 53.3 µg/mL (≈ 120 µM) | – |
| O=C(C[C@H]1NCCCC1O)Cn1cnc2ccccc2c1=O (stereo partly drawn) [Febrifugine, (2′S,3′R)-3-[3-(3-hydroxy-2-piperidyl)acetonyl]-4(3H)quinazolinone] | – | – | – | – | – | 0.081 µg/mL (≈ 0.269 µM) | – | 0.0635 µg/mL (≈ 0.211 µM) | IC50 ([1]; W2, read-out: IC50 P. falciparum (W2)): 0.00053 µg/mL (≈ 0.00176 µM); IC50 ([2]; D6, read-out: IC50 P. falciparum (D6)): 0.00034 µg/mL (≈ 0.00113 µM); in vitro antimalarial activity relative to chloroquine and artemisinin [8]: ten times stronger than chloroquine and artemisinin; antimalarial activity relative to quinine [9]: 100 times as active as quinine |
| CCOC1CCCN[C@@H]1CC(=O)Cn1cnc2cc(Br)c(Cl)cc2c1=O (stereo partly shown) [WR221232] | 0.0172 µg/mL (≈ 0.0388 µM) | 0.0115 µg/mL (≈ 0.0261 µM) | 0.0111 µg/mL (≈ 0.0251 µM) | 0.00945 µg/mL (≈ 0.0213 µM) | 0.287 µg/mL (≈ 0.647 µM) | 0.613 µg/mL (≈ 1.38 µM) | 5.99 µg/mL (≈ 13.5 µM) | 8 µg/mL (≈ 18.1 µM) | pIC50 [5]: ~3.95 |
| O=C(C[C@@H]1CCCCN1)Cn1cnc2ccccc2c1=O [WR059421] | 0.026 µg/mL (≈ 0.0912 µM) | 0.0237 µg/mL (≈ 0.083 µM) | 0.0171 µg/mL (≈ 0.06 µM) | 0.0174 µg/mL (≈ 0.0611 µM) | 0.236 µg/mL (≈ 0.827 µM) | 0.492 µg/mL (≈ 1.72 µM) | 5.38 µg/mL (≈ 18.9 µM) | 8.93 µg/mL (≈ 31.3 µM) | IC50 [5]: ~27 µM |
| O=C(C[C@H]1NCCCC1O)Cn1cnc2cc3c(cc2c1=O)OCO3 (stereo partly shown) [WR092103] | – | 0.00293 µg/mL (≈ 0.00848 µM) | – | 0.00238 µg/mL (≈ 0.00689 µM) | – | 3.61 µg/mL (≈ 10.4 µM) | – | 6.86 µg/mL (≈ 19.9 µM) | – |
| O=C(C[C@H]1NCCCC1O)Cn1cnc2cccc(Cl)c2c1=O (stereo partly shown) [WR139672] | 0.00163 µg/mL (≈ 0.00484 µM) | 0.00146 µg/mL (≈ 0.00435 µM) | 0.00123 µg/mL (≈ 0.00366 µM) | 0.00175 µg/mL (≈ 0.00521 µM) | 0.069 µg/mL (≈ 0.205 µM) | 0.392 µg/mL (≈ 1.17 µM) | 1.31 µg/mL (≈ 3.91 µM) | 1.16 µg/mL (≈ 3.45 µM) | – |
